Data taken from US8487113B2, “Method for the preparation of tizanidine hydrochloride” (Farmak, A.S., priority 2008, dated 2013).
Counter-ions that a name gives are not always drawn.

Legend:
[1] = per 1 g of substance, crystallization as in U.S. Pat. No. 3,843,668
[2] = per 1 g of substance, crystallization as in EP 644 192

Row | Compound | volume of methanol needed for dissolution of 1 g [1] | volume of ethanol needed for dissolution of 1 g [2]
1 | Clc1ccc2nsnc2c1NC1=NCCN1 [tizanidine base, 5-chloro-4-(2-imidazolin-2-yl-amino)-2,1,3-benzothiadiazole] | at least 37 ml | –
2 | Clc1ccc2nsnc2c1NC1=NCCN1 [tizanidine hydrochloride] | – | at least 43 ml
